Source: ChEMBL document CHEMBL5137025, “Tuberculosis Drug Discovery: Challenges and New Horizons” (J Med Chem, 2022)
≈ marks a conversion by molar mass, not a printed value.

Assays:
[1] = test system: Mycobacterium tuberculosis; format: functional; conditions: H37Rv, 336 h, time 14 day
[2] = Cytotoxicity against human THP-1 cells assessed as reduction in cell viability treated for 96 hrs by MTT assay; format: toxicity, cell-based
[3] = test system: Mycobacterium tuberculosis; format: functional; conditions: H37Rv
[4] = target: Voltage-gated inwardly rectifying potassium channel KCNH2 (Homo sapiens, UniProt Q12809); assay: Inhibition of hERG expressed in human HEK293 cells by manual patch clamp method; format: toxicity, cell-based
Voltage-gated inwardly rectifying potassium channel KCNH2, sequence (Q12809 whole entry): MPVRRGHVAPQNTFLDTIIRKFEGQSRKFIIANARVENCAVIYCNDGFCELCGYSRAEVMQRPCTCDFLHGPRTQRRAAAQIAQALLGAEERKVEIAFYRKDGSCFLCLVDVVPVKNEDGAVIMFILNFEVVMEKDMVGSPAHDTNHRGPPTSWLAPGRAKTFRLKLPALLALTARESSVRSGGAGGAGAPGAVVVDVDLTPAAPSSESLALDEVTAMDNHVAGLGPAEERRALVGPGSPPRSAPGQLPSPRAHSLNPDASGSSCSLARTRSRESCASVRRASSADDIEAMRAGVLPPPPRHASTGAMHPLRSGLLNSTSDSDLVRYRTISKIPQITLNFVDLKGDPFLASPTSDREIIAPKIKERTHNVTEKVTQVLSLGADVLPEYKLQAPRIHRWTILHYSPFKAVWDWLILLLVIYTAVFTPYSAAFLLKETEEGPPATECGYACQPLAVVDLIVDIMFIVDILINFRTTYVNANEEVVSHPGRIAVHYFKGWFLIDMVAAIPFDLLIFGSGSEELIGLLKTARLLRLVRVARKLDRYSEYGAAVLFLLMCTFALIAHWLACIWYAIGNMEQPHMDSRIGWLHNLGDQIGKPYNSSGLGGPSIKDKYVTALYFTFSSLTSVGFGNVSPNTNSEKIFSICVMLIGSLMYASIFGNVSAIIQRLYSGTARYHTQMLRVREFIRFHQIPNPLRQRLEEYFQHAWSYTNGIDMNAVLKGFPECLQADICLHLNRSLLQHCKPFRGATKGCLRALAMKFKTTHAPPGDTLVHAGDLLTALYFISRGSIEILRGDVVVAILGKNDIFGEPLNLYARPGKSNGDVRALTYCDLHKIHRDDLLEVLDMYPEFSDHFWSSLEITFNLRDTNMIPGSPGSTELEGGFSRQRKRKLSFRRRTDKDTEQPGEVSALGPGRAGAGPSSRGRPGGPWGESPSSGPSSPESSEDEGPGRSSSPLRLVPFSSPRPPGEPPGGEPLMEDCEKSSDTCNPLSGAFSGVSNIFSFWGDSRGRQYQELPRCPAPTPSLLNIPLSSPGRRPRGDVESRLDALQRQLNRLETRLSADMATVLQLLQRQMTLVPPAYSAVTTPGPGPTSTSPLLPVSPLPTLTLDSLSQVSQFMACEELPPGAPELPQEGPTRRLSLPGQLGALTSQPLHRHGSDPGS

[5] = Half life in Sprague-Dawley rat at 10 mg/kg, po via gavage measured for 0.25 to 96 hrs by LC/MS analysis; format: ADME, organism-based; conditions: in vivo, time 0.25-96 hrs
[6] = Cytotoxicity against African green monkey Vero cells assessed as reduction in cell viability treated for 3 days by Cell Titer Glo assay; format: toxicity, cell-based; conditions: chlorocebus sabaeus, time 3 day
[7] = Acute toxicity in 10 to 14 hr fasted Sprague-Dawley rat assessed as maximum tolerated dose administered orally via gavage; conditions: in vivo, time 10-14 hrs, route po
[8] = test system: Mycobacterium tuberculosis; format: functional, H37Rv; conditions: dose 200 mg/kg; route po; time 4 weeks
[9] = Oral bioavailability in Sprague-Dawley rat at 10 mg/kg via gavage measured for 0.25 to 96 hrs by LC/MS analysis; format: ADME, organism-based; conditions: in vivo, time 0.25-96 hrs
[10] = Cytotoxicity against African green monkey Vero cells assessed as reduction in cell viability treated for 72 hrs by CCK8 assay; format: toxicity, cell-based; conditions: chlorocebus sabaeus
[11] = test system: Mycobacterium tuberculosis; format: functional, H37Rv; conditions: dose 3.1 mg/kg; route po; time 4 weeks
[12] = test system: Mycobacterium tuberculosis; assay: Antibacterial activity against Mycobacterium tuberculosis Erdman in acute Mtb infection BALB/c mouse model assessed as reduction in log10 CFU in lungs at 50 mg/kg, po via gavage for 8 weeks; format: functional
[13] = test system: Mycolicibacterium smegmatis; assay: Inhibition of ATP synthesis in Mycobacterium smegmatis derived membrane vesicle incubated for 60 mins by luciferase based assay; format: functional; conditions: 1 h
[14] = test system: Mycobacterium tuberculosis; format: functional, H37Rv; conditions: dose 100 mg/kg; route po; time 2 weeks
[15] = test system: Mycobacterium tuberculosis; assay: microbe, parasite or virus in culture; conditions: H37Rv
Description: Antibacterial activity against Mycobacterium tuberculosis H37Rv assessed as inhibition of bacterial growth

[16] = test system: Mycobacterium tuberculosis; format: functional, H37Rv; conditions: dose 100 mg/kg; route po; time 4 weeks
HepG2 [17] = assay: Cytotoxicity against human HepG2 cells treated for 48 hrs by resazurin dye based assay; format: functional
[18] = Metabolic stability in mouse liver microsomes assessed as compound remaining measured after 1 hr in presence of NADP+ by LC-MS/MS analysis; format: ADME, Microsome; conditions: read-out: Stability
[19] = test system: Mycobacterium tuberculosis; format: functional; conditions: H37Rv, time 6 day
[20] = Metabolic stability in human liver microsomes assessed as compound remaining measured after 1 hr in presence of NADP+ by LC-MS/MS analysis; format: ADME, Microsome; conditions: read-out: Stability
Cytochrome P450 3A4 = Cytochrome P450 3A4 (Homo sapiens, UniProt P08684); assay: Inhibition of CYP3A4 in human liver microsome using midazolam as substrate incubated for 10 mins in presence of NADP+ by LC-MS/MS analysis; format: ADME, microsomes
Cytochrome P450 3A4, sequence (P08684 whole entry): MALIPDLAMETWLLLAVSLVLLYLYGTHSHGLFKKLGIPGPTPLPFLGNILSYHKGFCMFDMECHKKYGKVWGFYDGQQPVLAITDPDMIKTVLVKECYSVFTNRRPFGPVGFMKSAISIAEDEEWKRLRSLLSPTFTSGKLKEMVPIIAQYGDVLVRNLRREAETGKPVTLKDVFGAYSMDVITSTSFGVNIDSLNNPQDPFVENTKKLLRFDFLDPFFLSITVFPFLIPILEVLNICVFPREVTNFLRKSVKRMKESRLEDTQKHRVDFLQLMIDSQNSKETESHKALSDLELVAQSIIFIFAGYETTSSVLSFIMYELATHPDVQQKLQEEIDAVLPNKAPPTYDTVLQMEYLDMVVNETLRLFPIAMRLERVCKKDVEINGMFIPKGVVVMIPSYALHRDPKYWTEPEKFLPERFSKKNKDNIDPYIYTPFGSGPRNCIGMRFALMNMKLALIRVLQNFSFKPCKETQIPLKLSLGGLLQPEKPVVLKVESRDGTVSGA

[21] = test system: Mycobacterium tuberculosis; format: functional, H37Rv; conditions: dose 100 mg/kg; route po; time 3 weeks
[22] = test system: Mycobacterium tuberculosis; format: functional, H37Rv; conditions: dose 50 mg/kg; route po; time 3 weeks
[23] = test system: Mycobacterium tuberculosis; format: functional; conditions: H37Rv, 168 h, time 7 day
[24] = test system: Mycobacterium tuberculosis; format: functional, H37Rv; conditions: dose 100 mg/kg; route po; time 4 weeks; remark: listed apart in the source
[25] = test system: Mycobacterium tuberculosis; assay: Bactericidal activity against Mycobacterium tuberculosis H37Rv in acute Mtb infection BALB/c mouse model assessed as reduction in relative light unit at 100 mg/kg for 6 days; format: functional; conditions: time 6 day
[26] = Metabolic stability in mouse liver microsome assessed as half life in presence of NADPH measured upto 60 mins by LC-MS/MS analysis; format: ADME; conditions: liver microsomes
A549 = assay: Cytotoxicity against human A549 cells treated for 72 hrs by MTT assay; format: functional
[27] = Cytotoxicity against African green monkey Vero cells treated for 72 hrs by microplate reader method; format: toxicity, cell-based; conditions: chlorocebus sabaeus
[28] = Metabolic stability in mouse liver microsomes assessed as half life; format: ADME, Microsome
[29] = test system: Mycobacterium tuberculosis; assay: Antibacterial activity against Mycobacterium tuberculosis in chronic Mtb infection C3HeB/FeJ mouse model assessed as reduction in log10 CFU in lungs at 250 mg/kg, po via gavage for 2 weeks; format: functional
[30] = test system: Mycobacterium tuberculosis; assay: Antibacterial activity against Mycobacterium tuberculosis in acute Mtb infection C3HeB/FeJ mouse model assessed as reduction in log10 CFU in lungs at 250 mg/kg, po via gavage for 2 weeks; format: functional
[31] = Kinetic aqueous solubility of the compound; format: physicochemical; conditions: buffer; read-out: Kinetic_solubility
[32] = test system: Mycobacterium tuberculosis; assay: Antibacterial activity against Mycobacterium tuberculosis CDC1551 infected in mouse J774 cells assessed as inhibition of bacterial growth at 20 uM incubated for 24 hrs relative to control; format: functional; design: scale not given: the % may be the effect or the level left
[33] = Protein binding in mouse plasma; format: ADME, cell-free; conditions: read-out: PPB (converted)
[34] = test system: Mycobacterium tuberculosis; assay: Antibacterial activity against Mycobacterium tuberculosis Erdman in chronic Mtb infection BALB/c mouse model assessed as reduction in log10 CFU in lungs at 200 mg/kg, po via gavage for 30 days; format: functional; conditions: time 30 day
[35] = test system: Mycobacterium tuberculosis; assay: Antibacterial activity against Mycobacterium tuberculosis Erdman in chronic Mtb infection BALB/c mouse model assessed as reduction in log10 CFU in lungs at 100 mg/kg, po via gavage for 30 days in presence of 1-aminobenzotriazole; format: functional; conditions: time 30 day
[36] = Cytotoxicity against African green monkey Vero cells treated for 2 days by Cell Titer Glo assay; format: toxicity, cell-based; conditions: chlorocebus sabaeus, time 2 day
[37] = Half life in BALB/c mouse at 200 mg/kg, po measured for 0.5 to 24 hrs by LC-MS analysis; format: ADME, organism-based; conditions: in vivo, time 0.5-24 hrs
[38] = test system: Mycobacterium tuberculosis; format: functional; conditions: H37Rv, 216 h, time 9 day
[39] = Metabolic stability in human liver S9 microsomes assessed as half life in presence of NADPH by LC-MS/MS analysis; format: ADME
[40] = Solubility of the compound in microbiological medium at pH 6.8; format: physicochemical
[41] = test system: Mycobacterium tuberculosis; assay: Antibacterial activity against Mycobacterium tuberculosis Erdman in chronic Mtb infection BALB/c mouse model assessed as reduction in log10 CFU in lungs at 200 mg/kg, po via gavage for 30 days in presence of 1-aminobenzotriazole; format: functional; conditions: time 30 day
[42] = test system: Mycobacterium tuberculosis; format: functional; conditions: H37Rv, 120 h, time 5 day
[43] = Permeability in human Caco2 cells treated for 1 to 2 hrs by LC-MS/MS analysis; format: ADME, cell-based; conditions: Caco-2, time 1-2 hrs, read-out: permeability
[44] = test system: Mycobacterium tuberculosis; format: functional, H37Rv; conditions: dose 150 mg/kg; route po; time 10 day
HepG2 [45] = assay: Cytotoxicity against human HepG2 cells assessed as reduction in cell viability treated for 3 days by resazurin dye based assay; format: functional; conditions: HepG2, 72 h, time 3 day
[46] = test system: Mycobacterium tuberculosis; assay: Antibacterial activity against Mycobacterium tuberculosis Erdman in acute Mtb infection BALB/c mouse model assessed as reduction in log10 CFU in lungs at 100 mg/kg, po qd via gavage for 4 weeks; format: functional
[47] = test system: Mycobacterium tuberculosis; format: functional; conditions: H37Rv, time 14-21 day

O=[N+]([O-])c1cc2cccnc2c2ncccc12
MIC99 [1]: 0.78 µM (≈ 0.176 µg/mL) | CC50 at 96 h [2]: > 25 µM

COc1ccn2nc(C)c(C(=O)NCc3ccc(N4CCC(c5ccc(OC(F)(F)F)cc5)CC4)cc3)c2c1
MIC90 [3]: 0.011 µM (≈ 0.00592 µg/mL) | IC50 [4]: > 30 µM | half-life [5]: 1140 min | CC50 at 72 h [6]: > 100 µM | MTD [7]: > 2000 mg/kg | Activity [8]: 2.2 log10CFU | bioavailability [9]: 94% | CC50 at 72 h [10]: > 100 µM | Activity [11]: 2.2 log10CFU | Activity [12]: 0.3 log10CFU

CN(C)CCOc1ncc(Nc2cc(-c3ccccc3)nc3cc(-c4ccc(F)cc4)nn23)cc1F
IC50 [13]: 0.5 µM | Activity [14]: 1.5 log10CFU | MIC80 [15]: 6.2 µM (≈ 3.02 µg/mL)

CC(C)c1ccc(-c2nc(CN3CCN(c4ccnc5cc(-c6cccnc6)ccc45)CC3)no2)cc1
Activity [16]: 0.6 log10CFU | CC50 (HepG2 [17]): > 130 µM | remaining at 1 h [18]: 1.2% | MIC [19]: 1 µM (≈ 0.491 µg/mL) | remaining at 1 h [20]: 40% | IC50 (Cytochrome P450 3A4): > 25 µM

CC(=O)NC[C@@H]1OC(=O)N2c3cc(F)c(N4CCSCC4)cc3OC[C@@H]12
Activity [21]: 5.1 log10CFU | Activity [22]: >=3 log10CFU | MIC90 [23]: 0.08 µM (≈ 0.0305 µg/mL)

Cc1cnc2c(c1)cc([N+](=O)[O-])c1cccnc12
MIC99 [1]: 0.2 µM (≈ 0.0478 µg/mL) | Activity [24]: 1 log10CFU

CC1(C)CCC(OC(=O)Nc2cc(O)cc(Cc3ccccc3)c2)CC1
Activity [25]: 1.3 log10RLU | half-life [26]: 1.8 min | MIC90 [15]: 1.8 µM (≈ 0.636 µg/mL) | CC50 (A549): 64 µM

CCSc1ncc(CN2CCN(c3nc4ccccc4o3)CC2)cn1
CC50 at 72 h [27]: > 141 µM | half-life [28]: 49 min | Activity [29]: 0.7 log10CFU | Activity [30]: 0.9 log10CFU | solubility kinetic [31]: 76 µM (≈ 27 µg/mL) | Activity [32]: 54% | fraction unbound [33]: 0.03

Cc1cn2c(C(=O)NCc3ccc(N4CCN(c5ccc(C(F)(F)F)cn5)CC4)c(F)c3)c(C)nc2s1
Activity [34]: 0.3 log10CFU | Activity [35]: 0.3 log10CFU | CC50 at 48 h [36]: > 100 µM | half-life [37]: > 1440 min | MIC [38]: 1.1 µM (≈ 0.586 µg/mL) | half-life [39]: 28 min | solubility [40]: 50 µM (≈ 26.6 µg/mL) | Activity [41]: 0.6 log10CFU | MIC90 [42]: 0.008 µM (≈ 0.00426 µg/mL) | Papp [43]: < 10 nm/s

CCSc1nc(NC)c2ccc(F)c(F)c2n1
Activity [44]: 0.5 log10CFU | CC50 (HepG2 [45]): 153 µM | MIC90 [19]: 0.2 µM (≈ 0.0511 µg/mL)

O=C1C=CN(c2c(F)cc(N3C[C@H](CNc4ccon4)OC3=O)c(F)c2F)CC1 [CONTEZOLID]
Activity [46]: 2.3 log10CFU | MIC [47]: 1.2 µM (≈ 0.49 µg/mL)
